Molecules are shown by their SMILES. ≈ marks a conversion by molar mass, not a printed value. Where “and” joins values, the source holds several entries; their conditions need not be identical. Equal entries are not always repeated.

Data set [1] has as its system anti-p,p′-DDE antibody (mouse polyclonal antibody, sera). The data set is described as follows: indirect competitive ELISA. It is filed as binding. The following applies: for % cross-reactivity: (IC50 p,p′-DDE/IC50 chemicals) × 100. (In general: ELISA stands for enzyme-linked immunosorbent assay.)
The next data set relates to human tissues. Conditions: in human tissues; cited from earlier work.
[2] abbreviates: sera of mouse P3 at day 80, before the ELISA was optimized.

Consider `OCC(c1ccc(Cl)cc1)c1ccc(Cl)cc1` [DDOH, 2,2′-bis(4-chlorophenyl)ethanol], for which the “% cross-reactivity” value in data set [1] (pooled mouse sera) stood at 2.87%. The IC50 in data set [1] (pooled mouse sera, ic-ELISA) was 0.785 µg/mL (≈ 2.94 µM).

For the molecule `Clc1ccc(C(c2ccc(Cl)cc2)C(Cl)(Cl)Cl)cc1` [p,p′-DDT, 2,2-bis(p-chlorophenyl)-1,1,1-trichloroethane], the “% cross-reactivity” value in data set [1] (pooled mouse sera) turned out to be 6.62%. The IC50 in data set [1] (pooled mouse sera, ic-ELISA) was 0.34 µg/mL (≈ 0.959 µM); in data set [1] (setting [2]), “about 2.85 μg/mL”.

Turning to `O=C(c1ccc(Cl)cc1)c1ccc(Cl)cc1` [p,p′-DBP], in data set [1] (pooled mouse sera), the “% cross-reactivity” value was 0.27%. This molecule also yielded an IC50 in data set [1] (pooled mouse sera, ic-ELISA) of 8.357 µg/mL (≈ 33.3 µM).

Regarding `O=C(O)C(c1ccc(Cl)cc1)c1ccc(Cl)cc1` [p,p′-DDA], the “% cross-reactivity” value in data set [1] (pooled mouse sera) was found to be 0.28%. Also, the IC50 in data set [1] (pooled mouse sera, ic-ELISA) was determined as 8.025 µg/mL (≈ 28.5 µM).

Turning to `OC(c1ccc(Cl)cc1)c1ccc(Cl)cc1` [DCBH], the “% cross-reactivity” value in data set [1] (pooled mouse sera) was found to be 9.25%. This molecule also displayed an IC50 in data set [1] (pooled mouse sera, ic-ELISA) of 0.2433 µg/mL (≈ 0.961 µM).

For the molecule `ClC(Cl)=C(c1ccc(Cl)cc1)c1ccc(Cl)cc1` [p,p′-DDE, 1,1-Dichloro-2,2-bis(p-chlorophenyl) ethylene], the IC15 in data set [1] (developed ic-ELISA system) is 0.0096 ± 0.0244 µg/mL and 0.0096 µg/mL. Further, the IC50 in data set [1] (g-DDOH-OVA as coating antigen) is 0.69 µg/mL (≈ 2.17 µM); in data set [1] (pooled mouse sera, ic-ELISA), 0.0225 µg/mL (≈ 0.0707 µM); in data set [1] (s-DCBH-OVA as coating antigen) it was 0.06 µg/mL (≈ 0.189 µM); in data set [1] (setting [2]) it was approximately 0.08 µg/mL (≈ 0.252 µM). For the same molecule, in data set [1] (pooled mouse sera), the “% cross-reactivity” value was 100%. Further, the half-life with human tissues is 7–11 years.

For `Clc1ccc(C(c2ccccc2Cl)C(Cl)Cl)cc1` (stereo not shown) [o,p′-DDD], in data set [1] (pooled mouse sera), the “% cross-reactivity” value is 5.00%. Also, the IC50 in data set [1] (pooled mouse sera, ic-ELISA) turned out to be 0.45 µg/mL (≈ 1.41 µM).

`Clc1ccc(Cc2ccc(Cl)cc2)cc1` [p,p′-DDM]: the “% cross-reactivity” value in data set [1] (pooled mouse sera) stood at 59.7%. Moreover, in data set [1] (pooled mouse sera, ic-ELISA), the IC50 stood at 0.0377 µg/mL (≈ 0.159 µM).

As for `OC(c1ccc(Cl)cc1)(c1ccc(Cl)cc1)C(Cl)(Cl)Cl` [dicofol], the IC50 in data set [1] (pooled mouse sera, ic-ELISA) is more than 22.5 µg/mL.

`Clc1ccc(C(c2ccc(Cl)cc2)C(Cl)Cl)cc1` [p,p′-DDD]: the “% cross-reactivity” value in data set [1] (pooled mouse sera) came to 112.5%. The IC50 in data set [1] (pooled mouse sera, ic-ELISA) was found to be 0.02 µg/mL (≈ 0.0625 µM).

Turning to `ClC(Cl)=C(c1ccc(Cl)cc1)c1ccccc1Cl` [o,p′-DDE], the “% cross-reactivity” value in data set [1] (pooled mouse sera) is listed as 0.64%. In addition, in data set [1] (pooled mouse sera, ic-ELISA), the IC50 turned out to be 3.5 µg/mL (≈ 11 µM).

In data set [1] (pooled mouse sera, ic-ELISA), `Clc1ccc(C(c2ccccc2Cl)C(Cl)(Cl)Cl)cc1` (stereo not shown) [o,p′-DDT] gave an IC50 of more than 20 µg/mL.

Usually IC50 stands for the concentration that gives 50% inhibition. A low value points to greater potency in that assay.

The values above are taken from publication PMC3439832 (Journal of agricultural and food chemistry, 2011).
